pIC50: −log10 of the molar value.
Assays:
[1] = target: Mitogen-activated protein kinase 14 (Homo sapiens, UniProt Q16539)
CYP2C19 = CYP2C19 (Homo sapiens, UniProt P33261); test: Inhibition of CYP2C19 at 10 uM; type: ADME
CYP2D6 = CYP2D6 (Homo sapiens, UniProt P10635); test: Inhibition of CYP2D6 at 10 uM; type: ADME
CYP3A4 = CYP3A4 (Homo sapiens, UniProt P08684); test: Inhibition of CYP3A4 at 10 uM; type: ADME
Chain of CYP3A4 (P08684 whole entry): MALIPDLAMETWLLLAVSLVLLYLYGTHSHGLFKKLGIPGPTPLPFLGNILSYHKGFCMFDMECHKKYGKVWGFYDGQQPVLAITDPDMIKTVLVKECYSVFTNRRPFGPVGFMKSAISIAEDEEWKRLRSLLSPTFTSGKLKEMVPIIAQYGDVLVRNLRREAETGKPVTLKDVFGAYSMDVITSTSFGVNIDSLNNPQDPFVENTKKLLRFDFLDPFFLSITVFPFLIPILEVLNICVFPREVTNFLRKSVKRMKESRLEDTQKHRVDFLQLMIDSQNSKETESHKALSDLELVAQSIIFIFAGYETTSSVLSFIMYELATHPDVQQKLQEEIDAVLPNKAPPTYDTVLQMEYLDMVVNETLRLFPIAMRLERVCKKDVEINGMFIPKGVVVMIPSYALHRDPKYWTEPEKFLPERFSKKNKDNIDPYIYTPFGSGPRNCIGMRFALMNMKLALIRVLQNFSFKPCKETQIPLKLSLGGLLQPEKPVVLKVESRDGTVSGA

Chain of Mitogen-activated protein kinase 14 (Q16539 whole entry): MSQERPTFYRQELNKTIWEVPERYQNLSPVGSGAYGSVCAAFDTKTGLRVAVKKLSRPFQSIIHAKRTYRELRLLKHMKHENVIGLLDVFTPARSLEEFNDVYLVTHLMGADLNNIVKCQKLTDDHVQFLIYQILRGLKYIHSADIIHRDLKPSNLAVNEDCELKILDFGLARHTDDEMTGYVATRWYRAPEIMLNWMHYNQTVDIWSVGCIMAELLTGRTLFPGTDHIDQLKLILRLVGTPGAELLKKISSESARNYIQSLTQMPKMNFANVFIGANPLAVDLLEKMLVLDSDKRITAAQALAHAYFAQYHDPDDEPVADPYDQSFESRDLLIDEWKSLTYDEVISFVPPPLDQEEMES
Chain of CYP2D6 (P10635 whole entry): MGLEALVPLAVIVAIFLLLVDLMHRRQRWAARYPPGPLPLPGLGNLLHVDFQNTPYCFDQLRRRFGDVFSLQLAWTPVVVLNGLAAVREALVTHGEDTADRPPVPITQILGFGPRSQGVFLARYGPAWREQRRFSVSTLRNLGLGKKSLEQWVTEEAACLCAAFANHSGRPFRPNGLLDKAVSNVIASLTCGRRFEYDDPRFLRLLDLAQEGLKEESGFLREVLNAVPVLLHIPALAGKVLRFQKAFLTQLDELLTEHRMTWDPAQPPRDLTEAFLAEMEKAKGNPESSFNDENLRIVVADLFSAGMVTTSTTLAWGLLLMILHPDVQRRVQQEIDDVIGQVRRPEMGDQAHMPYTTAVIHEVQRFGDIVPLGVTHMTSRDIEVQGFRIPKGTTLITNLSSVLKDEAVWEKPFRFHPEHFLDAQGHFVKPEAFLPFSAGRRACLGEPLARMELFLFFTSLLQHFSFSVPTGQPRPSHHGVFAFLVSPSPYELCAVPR
Chain of CYP2C19 (P33261 whole entry): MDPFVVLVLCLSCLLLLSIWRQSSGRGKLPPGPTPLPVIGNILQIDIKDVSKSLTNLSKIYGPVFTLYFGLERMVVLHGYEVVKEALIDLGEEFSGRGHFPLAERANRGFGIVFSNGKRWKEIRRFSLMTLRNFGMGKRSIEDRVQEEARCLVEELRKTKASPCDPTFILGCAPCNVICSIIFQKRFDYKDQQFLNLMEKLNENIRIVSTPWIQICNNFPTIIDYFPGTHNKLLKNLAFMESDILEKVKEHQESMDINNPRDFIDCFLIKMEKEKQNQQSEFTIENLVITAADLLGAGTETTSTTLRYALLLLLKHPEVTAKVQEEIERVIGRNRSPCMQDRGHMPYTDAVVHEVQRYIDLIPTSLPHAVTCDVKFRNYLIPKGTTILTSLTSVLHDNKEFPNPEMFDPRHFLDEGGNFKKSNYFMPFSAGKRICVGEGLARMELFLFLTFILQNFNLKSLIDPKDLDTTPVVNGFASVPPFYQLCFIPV

pIC50 [1]	SMILES	other results
5.52	O=C1c2ccccc2COc2cc(Nc3ccc(Cl)cc3Cl)ccc21	
7.42	Nc1cc(F)ccc1Nc1ccc2c(c1)OCc1ccccc1C2=O	
< 5.30	O=C1c2ccccc2COc2cc(Nc3ccc(Br)cc3Br)ccc21	
< 5.30	Nc1ccc(Nc2ccc3c(c2)OCc2ccccc2C3=O)c(N)c1	

The remaining lines, values behind:

SMILES	pIC50 [1]	other results
Nc1ccc(Nc2ccc3c(c2)OCc2ccccc2C3=O)c(F)c1	5.88	
Cc1ccccc1C(=O)c1ccc(Nc2ccccc2)cc1Cl	6.72	
Nc1ccc(Nc2ccc3c(c2)OCc2ccccc2C3=O)cc1	< 5.30	
Nc1ccccc1Nc1ccc2c(c1)COc1ccccc1C2=O	5.51	
Nc1ccccc1Nc1ccc2c(c1)SCc1ccccc1C2=O	6.71	
Nc1cccc(Nc2ccc3c(c2)OCc2ccccc2C3=O)c1	5.91	
Nc1ccccc1Nc1ccc2c(c1)CCc1ccccc1C2=O		inhibition at 10 µM (CYP2C19): 53%; inhibition at 10 µM (CYP2D6): 42%; inhibition at 10 µM (CYP3A4): 70%
C[S+]([O-])c1ccc(-c2nc(-c3ccncc3)c(-c3ccc(F)cc3)[nH]2)cc1 (centres undefined) [SB-203580]		inhibition at 10 µM (CYP2C19): 92%; inhibition at 10 µM (CYP2D6): 73%; inhibition at 10 µM (CYP3A4): 77%
Nc1ccccc1Nc1ccc2c(=O)c3ccccc3ccc2c1	5.98	
O=C1c2ccccc2COc2cc(Nc3ccc(F)cc3F)ccc21	6.62	
Nc1ccc(Nc2ccc3c(c2)CCc2ccccc2C3=O)cc1	5.93	
